# According to ChEMBL document CHEMBL5393457, “Combined inhibition of amino acid transporters for inhibiting human plasmacytoid dendritic cell activity during autoimmunity” (2022):
# Activity calls are given as the source filed them. The rule behind the calls is not given here.
# Experiments:
# [1] = target: Large neutral amino acids transporter small subunit 1 (Homo sapiens) (UniProt Q01650); assay: Inhibition of human LAT1 at 100 uM relative to control
# [2] = system: Plasmacytoid dendritic cell; assay: Inhibition of mTORC1/mTORC2 in TLR9-activated human plasmacytoid dendritic cells at 1 uM assessed as decrease in CpG-A stimulated SLC7A11 expression; format: cell-based
# [3] = system: Plasmacytoid dendritic cell; assay: Inhibition of mTORC1/mTORC2 in CpG-A and IL-3-activated human plasmacytoid dendritic cells at 200 ng/mL assessed as decrease in SLC7A5 expression; format: cell-based
# [4] = system: Plasmacytoid dendritic cell; assay: Inhibition of mTORC1/mTORC2 in IL-3 and CpG-A-activated human plasmacytoid dendritic cells at 200 nM assessed as decrease in decrease in ENPP2/IFNA2 expression; format: cell-based
# [5] = system: Plasmacytoid dendritic cell; assay: Inhibition of mTORC1/mTORC2 in CpG-A and IL-3-activated human plasmacytoid dendritic cells at 200 ng/mL assessed as decrease in SLC3A2 expression; format: cell-based
# [6] = system: Plasmacytoid dendritic cell; assay: Inhibition of mTORC1/mTORC2 in IL-3 and CpG-A-activated human plasmacytoid dendritic cells at 200 nM assessed as decrease in decrease in MYO1E/IFNA2 expression; format: cell-based
# [7] = system: Plasmacytoid dendritic cell; assay: Inhibition of mTORC1/mTORC2 in CpG-A and IL-3-activated human plasmacytoid dendritic cells at 200 ng/mL assessed as decrease in TNF production; format: cell-based
# [8] = system: Plasmacytoid dendritic cell; assay: Inhibition of mTORC1/mTORC2 in CpG-A and IL-3-activated human plasmacytoid dendritic cells at 200 ng/mL assessed as decrease in IFN-alpha production; format: cell-based
# [9] = target: T1, Signal transducer and activator of transcription 5A (Homo sapiens) (UniProt P42229); assay: Inhibition of STAT5 in IL-3 and CpG-A-stimulated human plasmacytoid dendritic cells at 1 to 2 uM assessed as decrease in IFN-alpha production in presence of 100 uM sulfasalazine; format: cell-based; conditions: Plasmacytoid dendritic cell, dose 1-2 µM
# T1 sequence (whole entry): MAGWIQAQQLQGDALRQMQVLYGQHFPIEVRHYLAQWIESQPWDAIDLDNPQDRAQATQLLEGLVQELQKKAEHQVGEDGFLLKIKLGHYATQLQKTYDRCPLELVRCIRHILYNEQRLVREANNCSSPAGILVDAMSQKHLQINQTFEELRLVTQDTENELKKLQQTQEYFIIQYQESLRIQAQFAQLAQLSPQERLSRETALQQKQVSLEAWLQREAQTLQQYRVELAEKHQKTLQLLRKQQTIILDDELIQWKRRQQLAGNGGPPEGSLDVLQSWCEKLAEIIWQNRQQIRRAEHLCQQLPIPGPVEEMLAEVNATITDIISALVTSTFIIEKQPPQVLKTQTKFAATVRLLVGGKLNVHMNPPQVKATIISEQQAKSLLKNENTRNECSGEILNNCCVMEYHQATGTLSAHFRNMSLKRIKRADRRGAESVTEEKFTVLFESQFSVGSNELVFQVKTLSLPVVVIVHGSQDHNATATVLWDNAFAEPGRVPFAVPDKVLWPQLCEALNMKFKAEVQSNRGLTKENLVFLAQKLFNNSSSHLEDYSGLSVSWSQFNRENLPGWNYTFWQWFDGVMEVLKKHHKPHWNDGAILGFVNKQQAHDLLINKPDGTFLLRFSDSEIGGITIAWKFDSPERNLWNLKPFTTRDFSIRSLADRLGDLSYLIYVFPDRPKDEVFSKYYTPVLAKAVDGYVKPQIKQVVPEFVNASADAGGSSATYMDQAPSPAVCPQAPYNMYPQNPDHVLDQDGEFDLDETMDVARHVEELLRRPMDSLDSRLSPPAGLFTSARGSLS
# [10] = target: T1, Signal transducer and activator of transcription 5A (Homo sapiens); assay: Inhibition of STAT5 in IL-3 and CpG-A-stimulated human plasmacytoid dendritic cells at 1 to 2 uM assessed as decrease in TNF production in presence of 100 uM sulfasalazine; format: cell-based; conditions: Plasmacytoid dendritic cell, dose 1-2 µM
# [11] = target: T1, Signal transducer and activator of transcription 5A (Homo sapiens); assay: Inhibition of STAT5 in IL-3 and CpG-A-stimulated human plasmacytoid dendritic cells at 10 to 50 nM assessed as decrease in TNF production in presence of 100 uM sulfasalazine; format: cell-based; conditions: Plasmacytoid dendritic cell, dose 10-50 nM
# [12] = target: T1, Signal transducer and activator of transcription 5A (Homo sapiens); assay: Inhibition of STAT5 in IL-3 and CpG-A-stimulated human plasmacytoid dendritic cells at 10 to 50 nM assessed as decrease in IFN-alpha production in presence of 100 uM sulfasalazine; format: cell-based; conditions: Plasmacytoid dendritic cell, dose 10-50 nM
# Chain of Large neutral amino acids transporter small subunit 1 (Homo sapiens) (Q01650 whole entry): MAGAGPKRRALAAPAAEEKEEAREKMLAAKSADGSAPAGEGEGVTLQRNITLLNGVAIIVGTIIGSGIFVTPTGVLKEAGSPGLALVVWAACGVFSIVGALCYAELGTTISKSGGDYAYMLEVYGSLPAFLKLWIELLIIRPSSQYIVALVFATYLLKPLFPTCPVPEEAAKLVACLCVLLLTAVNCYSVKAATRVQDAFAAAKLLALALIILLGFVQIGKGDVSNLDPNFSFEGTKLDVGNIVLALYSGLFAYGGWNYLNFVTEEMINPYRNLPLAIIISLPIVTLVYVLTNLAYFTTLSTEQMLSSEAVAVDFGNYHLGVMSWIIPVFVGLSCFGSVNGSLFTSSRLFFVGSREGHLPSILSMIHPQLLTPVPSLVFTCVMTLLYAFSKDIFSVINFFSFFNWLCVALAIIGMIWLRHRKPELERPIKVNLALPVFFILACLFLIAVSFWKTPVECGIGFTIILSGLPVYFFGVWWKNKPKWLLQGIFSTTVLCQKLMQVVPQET
smiles,measurement,setting,value
Fc1ccc(Cl)cc1/N=c1\ssnc1Cl,inhibition,[1],> 90%
CCC(=O)N1CCN(c2ccc(-n3c(=O)ccc4cnc5ccc(-c6cnc7ccccc7c6)cc5c43)cc2C(F)(F)F)CC1,inhibition,[2],Active
same,inhibition,[3],Active
same,inhibition,[4],Active
same,inhibition,[5],Active
same,inhibition,[6],Active
same,inhibition,[7],Active
same,inhibition,[8],Active
FC(F)(F)Oc1ccc(/N=c2\ssnc2Cl)cc1,inhibition,[1],> 90%
O=c1[nH]c2ccccc2n1C1CCN(CCCC(c2ccc(F)cc2)c2ccc(F)cc2)CC1,inhibition,[9],Active
same,inhibition,[10],Active
N#Cc1cc(Br)ccc1/N=c1\ssnc1Cl,inhibition,[1],> 90%
CN(C)CCNc1nc2ccccc2c2[nH]c3ccccc3c12,inhibition,[11],Active
same,inhibition,[12],Active
N#Cc1c(Br)cccc1/N=c1\ssnc1Cl,inhibition,[1],> 90%
CC(C)(C)c1cc(CN(C(=O)CN(Cc2ccc(Cl)cc2)S(=O)(=O)c2c(F)c(F)c(F)c(F)c2F)c2ccc(C(=O)O)cc2)cc(C(C)(C)C)c1,inhibition,[9],Active
same,inhibition,[10],Active
